These are literature values, as cited in patent US20240384284A1, “FEED CROPS FOR REDUCED METHANOGENESIS IN LIVESTOCK” (Elysia Creative Biology, LLC, priority 2023, published 2024).

This series deals with methanogenesis.

As for `BrC(Br)Br` [Bromoform], the “in vivo methane reduction” value is given as “up to 98%”.
